Laboratory results reported in paper PMC5078989, “Targeted inhibition of the COP9 signalosome for treatment of cancer” (Nature Communications, 2016).

Test system: panel of cancer cell lines
Test: Cell viability (CellTiter-Glo) dose-response across cancer cell line panel;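 on EC50: after 72 h compound incubation with CellTiter-Glo ATP readout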
Type: cell-based, human
Details: for EC50: Homo sapiens
Description: Next, we explored the effect of CSN5 inhibition on the viability of cancer cells. To obtain a comprehensive picture, we generated dose–response curves with a CSN5 inhibitor across more than 500 cancer cell lines in a previously described standardized setting[47] (Supplementary Data 1).
A standardized CellTiter-Glo Assay (Promega #G7570) based on the quantification of ATP was applied according to the manufacturer's protocol to measure the amount of viable cells in culture. In brief, cells were seeded into 384-well plates at optimal density for each cell line. After 4 h, compounds were added at different concentrations in growth medium and incubated for another 72 h in a humidifying chamber at 37 °C and 5% CO2. […] EC50 values were calculated from the plot of percentage of inhibition versus inhibitor concentration using the nonlinear regression analysis software Origin 7.5SR6 (OriginLab Corp.).

EC50 (SNU-449, SNU-449): 2130 nM
EC50 (SNU-475, SNU-475): 2610 nM
EC50 (SNU-685): 2090 nM
EC50 (SNU-738): 14200 nM
EC50 (SNU-761): 281 nM
EC50 (SNU-1040): 26800 nM
EC50 (SNU-1079): 661 nM
EC50 (SNU-C1, SNU-C1): 11700 nM
EC50 (SNU-C2A): 5180 nM
EC50 (SNU-C4, SNU-C4): 2280 nM
EC50 (SNU-C5): 513 nM
EC50 (SR-786, SR-786): 515 nM
EC50 (SU-DHL10, SU-DHL-10): 649 nM
EC50 (SU-DHL-4, SU-DHL-4): 703 nM
EC50 (SU-DHL-5, SU-DHL-5): 161 nM
EC50 (SU-DHL-6, SU-DHL-6): 261 nM
EC50 (SU-DHL-8, SU-DHL-8): 467 nM
EC50 (SU.86.86, SU.86.86): 27000 nM
EC50 (SUIT-2, SUIT-2): 2040 nM
EC50 (SUM44PE): 17000 nM
EC50 (SUM52PE): 4060 nM
EC50 (SUM149PT): 883 nM
EC50 (SUM185PE): 11200 nM
EC50 (SUM190PT): 2950 nM
EC50 (SUP-T1, SUP-T1): 768 nM
EC50 (SW48, SW48): 3240 nM
EC50 (SW480, SW480): 1840 nM
EC50 (SW837, SW837): > 30000 nM
EC50 (SW900, SW 900): 1450 nM
EC50 (SW982, SW982): 1380 nM
EC50 (SW1271, SW 1271): 766 nM
EC50 (SW1353, SW 1353): 1370 nM
EC50 (SW1573, SW 1573): 1070 nM
EC50 (SW1783, SW 1783): 358 nM
EC50 (SW-403, SW403): > 30000 nM
EC50 (SW-620, SW620): 2980 nM
EC50 (SYO-1): 472 nM
EC50 (Sq-1): 1270 nM
EC50 (T3M4, T3M-4): 2420 nM
EC50 (T47D, T-47D): 1030 nM
EC50 (TALL-1, TALL-1): 639 nM
EC50 (TANOUE): 248 nM
EC50 (TC-71, TC-71): 1990 nM
EC50 (TCC-PAN2): 817 nM
EC50 (TE-1, TE-1): 751 nM
EC50 (TE-6, TE-6): 1680 nM
EC50 (TE-11, TE-11): 1030 nM
EC50 (TE-14): 3660 nM
EC50 (TE-15, TE-15): 69.5 nM
EC50 (TF-1, TF-1): 2590 nM
EC50 (THP-1, THP-1): 636 nM
EC50 (TT2609-C02): 1770 nM
EC50 (TYK-nu): 155 nM
EC50 (U266B1): 485 nM
EC50 (U-87 MG): 1190 nM
EC50 (U-118-MG, U-118 MG): 1290 nM
EC50 (U-251, U-251 MG): 1610 nM
EC50 (U-937, U-937): 354 nM
EC50 (UACC-62, UACC-62): 3710 nM
EC50 (UACC-257, UACC-257): 556 nM
EC50 (UCH1, UCH-1): 415 nM
EC50 (UKE1, UKE1): 160 nM
EC50 (VM-CUB-1, VM-CUB1): 6690 nM
EC50 (VMRC-LCD): 961 nM
EC50 (VMRC-RCW): 2190 nM
EC50 (WM 266-4, WM-266-4): 1440 nM
EC50 (WM983B, WM-983B): 1390 nM
EC50 (WM-88): 20100 nM
EC50 (WM-115, WM-115): 1250 nM
EC50 (WM-1799, WM1799): 1750 nM
EC50 (WSU-WM): 814 nM
EC50 (YAPC): 569 nM
SMILES: COCc1ccccc1NCc1ccc([C@H]2[C@@H](O)CCCc3cncn32)c(-c2ccccc2Cl)c1 [CSN5i-2, (5S,6S)-5-(2′-chloro-5-(((2-(methoxymethyl)phenyl)amino)methyl)-[1,1′-biphenyl]-2-yl)-6,7,8,9-tetrahydro-5H-imidazo[1,5-a]azepin-6-ol]
AMAX (Hs 294T): -53.6994
AMAX (Hs 695T): -69.7728
AMAX (Hs 936.T): -84.1429
AMAX (HuG1-N): -75.3496
AMAX (HuH-7): -82.3154
AMAX (IGR-37): -80.2025
AMAX (IGROV1): -66.8455
AMAX (IPC-298): -65.2966
AMAX (Ishikawa): -71.6276
AMAX (JHH-4): -91.4689
AMAX (JHOS-2): -38.1051
AMAX (JHUEM-2): -86.9649
AMAX (JL-1): -47.9564
AMAX (JVM-2): -85.1393
AMAX (KARPAS-422): -79.6206
AMAX (KATO III): -58.0161
AMAX (KBM-7): -95.2333
AMAX (KE-97): -97.8925
AMAX (KMRC-1): -54.4009
AMAX (KP4): -68.6951
AMAX (KP-1N): -56.9313
AMAX (KP-3): -58.802
AMAX (KU-19-19): -51.5044
AMAX (KYSE-150): -49.8534
AMAX (KYSE-180): -63.0038
AMAX (Kasumi3): -93.6402
AMAX (LUDLU-1): -71.9634
AMAX (MFE-280): -66.9982
AMAX (MG-63): -59.1323
AMAX (MM138): -89.9344
AMAX (MM415): -88.4479
AMAX (MM426): -60.9162
AMAX (MM485): -69.291
AMAX (MM537): -73.4726
AMAX (MM576): -52.394
AMAX (MOLM-16): -89.6899
AMAX (MOLT-13): -95.3007
AMAX (MeWo): -53.7976
AMAX (NB-1): -92.7531
AMAX (NCI-H82): -95.3022
AMAX (NCI-H211): -68.3447
AMAX (NCI-H322): -37.8008
AMAX (NCI-H441): -64.9424
AMAX (NCI-H647): -44.0246
AMAX (NCI-H650): -44.5856
AMAX (NCI-H810): -67.8352
AMAX (NCI-H841): -78.3347
AMAX (NCI-H1155): -84.5649
AMAX (NCI-H1299): -58.5091
AMAX (NCI-H1339): -66.5268
AMAX (NCI-H1373): -65.8548
AMAX (NCI-H1568): -93.8026
AMAX (NCI-H2087): -59.3219
AMAX (NCI-H2122): -79.8003
AMAX (NCI-H2126): -18.8926
AMAX (NCI-H2172): -75.6398
AMAX (NCI-H2452): -33.7782
AMAX (NCI-N87): -47.3502
AMAX (ONCO-DG-1): -61.2577
AMAX (OUMS-23): -82.8646
AMAX (OV56): -76.0147
AMAX (P3HR-1): -76.4402
AMAX (P12-ICHIKAWA): -95.4636
AMAX (PC-3): -57.0972
AMAX (Panc 03.27): -70.0008
AMAX (Panc 10.05): -84.7778
AMAX (RT-112): -42.1113
AMAX (SEM): -97.9816
AMAX (SK-ES-1): -89.0847
AMAX (WM-88): -55.011
maximal loss of viability (other, less sensitive cell lines of the panel): 40–60%
Amax (high-concentration effect level) (some cell lines of the panel (cytotoxic)): ≤ −80%
